Laboratory results published in patent publication US20220409727A1, “Metal Complexes Bearing Bisstyryl-Bipyridine Ligand and Their Use as Photosensitizer Agent in One and Two-Photon Photodynamic Therapy” (Paris Sciences et Lettres, priority 2019, published 2022).
Read-outs that look alike come from different tables or passages of the source.

Legend:
[1] = Emission measurement in CH3CN; assay type: physicochemical; conditions: room temperature, excitation at 355 nm
Procedure: The absorption of the samples was measured with a SpectraMax M2 Spectrometer (Molecular Devices). The emission was measured by irradiation of the sample in fluorescence quartz cuvettes (width 1 cm) using a NT342B Nd-YAG pumped optical parametric oscillator (Ekspla) at 355 nm. Luminescence was focused and collected at right angle to the excitation pathway and directed to a Princeton Instruments Acton SP-2300i monochromator. As a detector, a XPI-Max 4 CCD camera (Princeton Instruments) has been used.

[2] = Luminescence quantum yield measurements; assay type: physicochemical; set-up: key: fraction, relative to [Ru(bipy)3]Cl2 reference in CH3CN (Φem=5.9%); conditions: CH3CN, room temperature, excitation at 355 nm
Procedure: For the determination of the luminescence quantum yield, the samples were prepared in an CH3CN solution with an absorbance of 0.1 at 355 nm. This solution was irradiated in fluorescence quartz cuvettes (width 1 cm) using a NT342B Nd-YAG pumped optical parametric oscillator (Ekspla) at 355 nm. The emission signal was focused and collected at right angle to the excitation pathway and directed to a Princeton Instruments Acton SP-2300i monochromator. As a detector a XPI-Max 4 CCD camera (Princeton Instruments) has been used. The luminescence quantum yields were determined by comparison with the reference [Ru(bipy)3]Cl2 in CH3CN (Φem=5.9%) (Nakamaru, K., 1982) applying the following formula:
Φem, sample=Φem, reference*(Freference/Fsample)*(Isample/Ireference)*(nsample/nreference)^2
Φem=luminescence quantum yield, F=fraction of light absorbed, I=integrated emission intensities, n=refractive index, A=absorbance of the sample at irradiation wavelength.

[3] = Luminescence lifetime measurements; assay type: physicochemical; conditions: excitation at 355 nm
Procedure: For the determination of the lifetimes, the samples were prepared in an air saturated and in a degassed CH3CN solution with an absorbance of 0.2 at 355 nm. This solution was irradiated in fluorescence quartz cuvettes (width 1 cm) using a NT342B Nd-YAG pumped optical parametric oscillator (Ekspla) at 355 nm. The emission signal was focused and collected at right angle to the excitation pathway and directed to a Princeton Instruments Acton SP-2300i monochromator. As a detector a R928 photomultiplier tube (Hamamatsu) has been used.

[4] = Singlet oxygen measurement, direct evaluation (1O2 luminescence at 1270 nm); assay type: physicochemical
Procedure: The samples were prepared in an air saturated CH3CN or D2O solution with an absorbance of 0.2 at 450 nm. This solution was irradiated in fluorescence quartz cuvettes (width 1 cm) using a mounted M450LP1 LED (Thorlabs) whose irradiation, centered at 450 nm, has been focused with aspheric condenser lenses. The intensity of the irradiation has been varied using a T-Cube LED Driver (Thorlabs) and measured with an optical power and energy meter. The emission signal was focused and collected at right angle to the excitation pathway and directed to a Princeton Instruments Acton SP-2300i monochromator. A longpass glass filter was placed in front of the monochromator entrance slit to cut off light at wavelengths shorter than 850 nm. As a detector an EO-817L IR-sensitive liquid nitrogen cooled germanium diode detector (North Coast Scientific Corp.) has been used. The singlet oxygen luminesce at 1270 nm was measured by recording spectra from 1100 to 1400 nm. For the data analysis, the singlet oxygen luminescence peaks at different irradiation intensities were integrated. The resulting areas were plotted against the percentage of the irradiation intensity and the slope of the linear regression calculated. The absorbance of the sample was corrected with an absorbance correction factor. As reference for the measurement Rose Bengal (Φ=76%) (Kochevar, I. E. and Redmond, R. W., 2000) was used and the singlet oxygen quantum yields were calculated using the following formula:
Φsample=Φreference*(Ssample/Sreference)*(Ireference/Isample)
Φ=singlet oxygen quantum yield, S=slope of the linear regression of the plot of the areas of the singlet oxygen luminescence peaks against the irradiation intensity, I=absorbance correction factor, […] of the irradiation source, A=absorbance of the sample at irradiation wavelength.

[5] = Singlet oxygen measurement, indirect evaluation (RNO absorbance); assay type: physicochemical; conditions: indirect
Procedure: For the measurement in CH3CN: The samples were prepared in an air-saturated CH3CN solution containing the complex with an absorbance of 0.2 at the irradiation wavelength, N,N-dimethyl-4-nitrosoaniline aniline (RNO, 24 μM) and imidazole (12 mM). For the measurement in PBS buffer: The samples were prepared in an air-saturated PBS solution containing the complex with an absorbance of 0.1 at the irradiation wavelength, N,N-dimethyl-4-nitrosoaniline aniline (RNO, 20 μM) and histidine (10 mM). The samples were irradiated on 96 well plates with an Atlas Photonics LUMOS BIO irradiator for different times. The absorbance of the samples was measured during these time intervals with a SpectraMax M2 Microplate Reader (Molecular Devices). The difference in absorbance (A0−A) at 420 nm for the CH3CN solution or at 440 nm a PBS buffer solution was calculated and plotted against the irradiation times. From the plot the slope of the linear regression was calculated as well as the absorbance correction factor determined. The singlet oxygen quantum yields were calculated using the same formulas as used for the direct evaluation.

[6] = test system: human cervical carcinoma (HeLa) cells; assay: (Photo-)cytotoxicity on 2D cell monolayers, resazurin assay, HeLa; assay type: cell-based
Description: Before an experiment, the cells were passaged three times.

[7] = test system: mouse colon carcinoma (CT-26) cells
[8] = test system: human glioblastoma astrocytoma (U373) cells
Procedure: (§2) The human glioblastoma astrocytoma (U373) cell line was cultured in MEM medium supplemented with 10% FBS, 1% NEAA (non-essential amino-acids) and 1% penicillin/streptomycin. […] The human retinal epithelial cells (RPE-1, non-cancerous cells immortalized with hTERT) were cultured in DMEM-F12 medium supplemented with 10% FBS and 1% penicillin/streptomycin. All cell lines were obtained from the American Type Culture Collection (ATCC) and cultured at 37° C. and 5% CO2. Before an experiment, the cells were passaged three times.
(§3) The cytotoxicity of the compounds was assessed by measuring cell viability using a fluorometric resazurin assay. The cultivated cells were seeded in triplicates in 96 well plates with a density of 4000 cells per well in 100 μL of media. After 24 h, the medium was removed and the cells were treated with increasing concentrations of the compound diluted in cell media achieving a total volume of 200 μL. The cells were incubated with the compound for 4 h. After this time, the media was removed and replaced with 200 μL of fresh medium. For the phototoxicity studies, the cells were exposed to light with an Atlas Photonics LUMOS BIO irradiator. Each well was constantly illuminated with either a 480 nm or 540 nm irradiation. During this time, the temperature was maintained constantly at 37° C. The cells were grown in the incubator for additional 44 h. For the determination of the dark cytotoxicity, the cells were not irradiated and after the medium exchange directly incubated for 44 h. After this time, the medium was replaced with fresh medium containing resazurin with a final concentration of 0.2 mg/mL. After 4 h incubation, the amount of the fluorescent product resorufin was determined upon excitation at 540 nm and measurement its emission at 590 nm using a SpectraMax M2 Microplate Reader (Molecular Devices).
(§4) The obtained data was analyzed with the GraphPad Prism software.

[9] = test system: human glioblastoma astrocytoma (U373) cells; assay: (Photo-)cytotoxicity on 2D cell monolayers, resazurin assay, U373; conditions: for IC50: compounds 1-3 as chloride salts
Procedure: as §2, §3, §4

[10] = test system: non-cancerous retinal pigment epithelium (RPE-1) cells; assay: (Photo-)cytotoxicity on 2D cell monolayers, resazurin assay, RPE-1;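 note: cells exposed to compound 4 h, medium exchanged, then irradiated or kept dark, 44 h further growth, viability by resorufin fluorescence (ex 540 nm, em 590 nm)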
Procedure: as §2, §3, §4

[11] = test system: mouse colon carcinoma (CT-26) cells; assay: (Photo-)cytotoxicity on 2D cell monolayers, resazurin assay, CT-26; conditions: for IC50: compounds 1-3 as chloride salts
[12] = reference for the measurement; cited from earlier work
[13] = CH3CN; cited from earlier work
HeLa MCTS [14] = assay: 3D multicellular tumor spheroids (MCTS) growth inhibition assay; assay type: cell-based, human
Procedure: (§1) autoclave. The hot emulsion was transferred into wells (50 μL per well) of a 96 cell culture well plate. The plates were exposed for 3 h to UV irradiation to ensure the sterility and allow the agarose solution to cool down. After this time, the agarose was overlayed with a HeLa cell suspension at a density of 3000 cells per well in 150 μL of media. The MCTS were cultivated and maintained at 37° C. in a cell culture incubator at 37° C. with 5% CO2 atmosphere. The culture media was replaced every two days. Within two-three days MCTs were formed from the cell suspension. The formation as well as integrity, diameter and volume of the MCTs was monitored by an Axio Observer Z1 (Carl Zeiss) phase contrast microscope. The volume was calculated using the following formula: V=4/3πr^3. The luminescence images along the z-axis were captured by a one-(λex=458 nm, λem=600-750 nm) or two-photon (λex=800 nm, λem=600-750 nm) excitation in the z-stack mode with a an LSM 880 (Carl Zeiss) laser scanning confocal microscope equipped with Argon and a Coherent Chameleon 2-Photon laser and a GaAsP detector.
MCTS were treated with the corresponding compounds (20 μM 1-7, 20 μM tetraphenylporphyrin H2TPP, 10 μM cisplatin, 30 μM cisplatin, 2% DMSO, v %) by replacing 50% of the media with drug supplemented media in the dark for three days. After this time, the MCTS were exposed to a two-photon irradiation (800 nm, 10 J/cm^2) with a section interval of 5 μm using a LSM 880 (Carl Zeiss) laser scanning confocal microscope equipped with a Coherent Chameleon 2-Photon laser. The cell culture media was replaced every two days. The integrity and diameter of the MCTs was monitored with an Axio Observer Z1 (Carl Zeiss) phase contrast microscope every 24 h.

HeLa MCTS [15] = assay: (Photo-)cytotoxicity on 3D multicellular tumor spheroids (ATP, CellTiter-Glo 3D); assay type: cell-based, human; conditions: dark, 12 h incubation, read-out: IC50 dark
Procedure: as §1
The cytotoxicity of the compounds in 3D multicellular tumor spheroids (MCTS) was assessed by measurement of the ATP concentration. MCTS were treated with increasing concentrations of the compound (2% DMSO, v %) by replacing 50% of the media with drug supplemented media and incubation for 12 h. After this time, the MCTS were divided in three identical groups. The first group was strictly kept in the dark. The second group was exposed to a one-photon irradiation (500 nm, 10 J/cm^2) using a LED and the third group was exposed to a two-photon irradiation (800 nm, 10 J/cm^2) with a section interval of 5 μm using a LSM 880 (Carl Zeiss, Germany) laser scanning confocal microscope equipped with a Coherent Chameleon 2-Photon laser. After the irradiation, all groups were incubated additional 48 h. The ATP concertation was measured using a CellTiter-Glo 3D Cell Viability kit (Promega) by measuring the generated chemiluminescence with an infinite M200 PRO (Tecan) plate reader.

[16] = dark, 4 h incubation, compounds 1-3 as chloride salts, read-out: IC50 dark
[17] = read-out: IC50 dark, U373, dark, 4 h incubation
[18] = read-out: IC50 dark, CT-26, dark, 4 h incubation

For `COc1ccc(/C=C/c2ccnc(-c3cc(/C=C/c4ccc(OC)cc4)ccn3)c2)cc1.COc1ccc(/C=C/c2ccnc(-c3cc(/C=C/c4ccc(OC)cc4)ccn3)c2)cc1.COc1ccc(/C=C/c2ccnc(-c3cc(/C=C/c4ccc(OC)cc4)ccn3)c2)cc1.F[P-](F)(F)(F)(F)F.F[P-](F)(F)(F)(F)F.[Ru+2]` [Compound 3, [Ru((E,E′)-4,4′-Bis[p-methoxystyryl]-2,2′-bipyridine)3][PF6]2], the “λem/nm (Emission maximum)” value [1] was 682 nm, the “ϕem (Luminescence Quantum Yield)” value [2] was 0.011 and the “τ/ns air (Lifetime)” value ([3]; air saturated CH3CN) was 76 ns. For the same compound, the “τ/ns degassed (Lifetime)” value ([3]; degassed CH3CN) was 338 ns, the “Singlet oxygen quantum yield, direct 450 nm CH3CN” value [4] was 52% and the “Singlet oxygen quantum yield, indirect 450 nm CH3CN” value ([5]; 450 nm, CH3CN) was 48%. For the same compound, the “Singlet oxygen quantum yield, indirect 450 nm PBS” value ([5]; 450 nm, PBS) was 6%, the “Singlet oxygen quantum yield, indirect 540 nm CH3CN” value ([5]; 540 nm, CH3CN) was 49% and the “Singlet oxygen quantum yield, indirect 540 nm PBS” value ([5]; 540 nm, PBS) was 5%. The “PI (480 nm)” value ([6]; dark vs 480 nm (10 min, 3.1 J/cm^2)) was over 6.5, the “PI (540 nm)” value ([6]; dark vs 540 nm (40 min, 9.5 J/cm^2)) was over 8.8 and the IC50 [6, 16] was over 100 µM. For the same compound, the IC50 ([6]; read-out: IC50 480 nm (10 min, 3.1 J/cm^2), irradiation 480 nm (10 min, 3.1 J/cm^2), compounds 1-3 as chloride salts) was 15.3 ± 1.4 µM, the IC50 ([6]; read-out: IC50 540 nm (40 min, 9.5 J/cm^2), irradiation 540 nm (40 min, 9.5 J/cm^2), compounds 1-3 as chloride salts) was 11.3 ± 2.2 µM and the IC50 [7] was 19.3 ± 2.1 µM. For the same compound, the IC50 [8] was 51.3 ± 3.4 µM, the “PI (480 nm)” value ([9]; U373, dark vs 480 nm (10 min, 3.1 J/cm^2)) was over 2.4 and the “PI (540 nm)” value ([9]; U373, dark vs 540 nm (40 min, 9.5 J/cm^2)) was over 1.9. For the same compound, the IC50 ([9]; read-out: IC50 480 nm (10 min, 3.1 J/cm^2), U373, irradiation 480 nm (10 min, 3.1 J/cm^2)) was 41 ± 3.5 µM, the IC50 [9, 17] was over 100 µM and the “PI (480 nm)” value ([10]; RPE-1, dark vs 480 nm (10 min, 3.1 J/cm^2)) was over 1.9. The “PI (540 nm)” value ([10]; RPE-1, dark vs 540 nm (40 min, 9.5 J/cm^2)) was over 2.2, the “PI (480 nm)” value ([11]; CT-26, dark vs 480 nm (10 min, 3.1 J/cm^2)) was over 5.2 and the “PI (540 nm)” value ([11]; CT-26, dark vs 540 nm (40 min, 9.5 J/cm^2)) was over 4.3. The IC50 ([11]; read-out: IC50 540 nm (40 min, 9.5 J/cm^2), CT-26, irradiation 540 nm (40 min, 9.5 J/cm^2)) was 23 ± 2.6 µM and the IC50 [11, 18] was over 100 µM.
In the case of `O=C([O-])c1c(Cl)c(Cl)c(Cl)c(Cl)c1-c1c2cc(I)c(=O)c(I)c-2oc2c(I)c([O-])c(I)cc12.[Na+].[Na+]` [Rose Bengal], the “Φ (singlet oxygen quantum yield of the reference)” value [12] is listed as 76%.
In the case of `[Cl-].[Cl-].[Ru+2].c1ccc(-c2ccccn2)nc1.c1ccc(-c2ccccn2)nc1.c1ccc(-c2ccccn2)nc1` [[Ru(bipy)3]Cl2], the “Φem (luminescence quantum yield of the reference)” value [13] is listed as 5.9%.
In the case of `N.N.[Cl][Pt][Cl]` [cisplatin, reference compound], the IC50 [6, 16] is reported as 10.5 ± 0.8 µM, the “effect on the tumours growth (MCTS volume) at 10 μM” value (HeLa MCTS [14]; 10 μM) is reported as “weak effect” and the “effect on the tumours growth (MCTS volume) at 30 μM” value (HeLa MCTS [14]; 30 μM) is reported as “significantly decreasing the volume”. The IC50 (HeLa MCTS [15]) was 18.6 ± 1.3 µM, the IC50 [9, 17] was 17.6 ± 1.7 µM and the IC50 [11, 18] was 6.5 ± 1.1 µM.
